Values joined by “and” are separate entries in the source; they are usually repeats but may differ in a detail not shown here. Equal values may be shown once.
Test system: MDA-MB-468 multi-cell spheroids, viability
Assay: Anticancer human tumor MDA-MB-468 cell line growth inhibition [IpAb];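 further: spheroids exposed to agents for seven days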;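 on viability, T/C: 100% = DMSO vehicle control viability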
Settings: for viability, T/C: stronger effect = lower value
Method in brief: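 Combinations with ipatasertib or abemaciclib were tested on tumour spheroids holding HUVEC (25%) and MSC (15%) alongside 60% malignant cells. Top concentration was at or near clinical Cmax (10 microM if undefined), descending in half-log steps.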

[1] = curve of first compound, second compound 0.1 µM
[2] = curve of first compound, second compound 0.316 µM
[3] = curve of first compound, second compound 1 µM
[4] = second compound 0.1 µM, first compound 0.00316 µM
[5] = second compound 0.1 µM, first compound 0.01 µM
[6] = second compound 0.1 µM, first compound 0.0316 µM
[7] = second compound 0.1 µM, first compound 0.1 µM
[8] = second compound 0.316 µM, first compound 0.00316 µM
[9] = second compound 0.316 µM, first compound 0.01 µM
[10] = second compound 0.316 µM, first compound 0.0316 µM
[11] = second compound 0.316 µM, first compound 0.1 µM
[12] = second compound 1 µM, first compound 0.00316 µM
[13] = second compound 1 µM, first compound 0.01 µM
[14] = second compound 1 µM, first compound 0.0316 µM
[15] = second compound 1 µM, first compound 0.1 µM

`COc1c(OCCCN2CCOCC2)ccc2c3n(c(=NC(=O)c4cnc(N)nc4)nc12)CCN3` + CCN1CCN(Cc2ccc(Nc3ncc(F)c(-c4cc(F)c5nc(C)n(C(C)C)c5c4)n3)nc2)CC1 was tested, and the IC50 (curve of first compound, second compound 0.01 µM) was 0.145 µM, the IC50 (curve of first compound, second compound 0.0316 µM) was 0.109 µM and the IC50 [1] was 0.0917 µM. The IC50 [2] was 0.111 µM, the IC50 [3] was 0.0754 µM and the viability, T/C (second compound 0.01 µM, first compound 0.00316 µM) was 101%. The viability, T/C (second compound 0.01 µM, first compound 0.01 µM) was 79.4%, the viability, T/C (second compound 0.01 µM, first compound 0.0316 µM) was 78.6% and the viability, T/C (second compound 0.01 µM, first compound 0.1 µM) was 66.9%. It also gave a viability, T/C (second compound 0.01 µM, first compound 0.316 µM) of 20.9%, a viability, T/C (second compound 0.01 µM, first compound 1 µM) of 3.88% and a viability, T/C (second compound 0.0316 µM, first compound 0.00316 µM) of 93%. The viability, T/C (second compound 0.0316 µM, first compound 0.01 µM) was 85.6%, the viability, T/C (second compound 0.0316 µM, first compound 0.0316 µM) was 73.5% and the viability, T/C (second compound 0.0316 µM, first compound 0.1 µM) was 54.7%. For the same compound, the viability, T/C (second compound 0.0316 µM, first compound 0.316 µM) was 21.9%, the viability, T/C (second compound 0.0316 µM, first compound 1 µM) was 3.58% and the viability, T/C [4] was 109%. The viability, T/C [5] was 93.8%, the viability, T/C [6] was 78.4% and the viability, T/C [7] was 50.1%. It also gave a viability, T/C (second compound 0.1 µM, first compound 0.316 µM) of 16.1%, a viability, T/C (second compound 0.1 µM, first compound 1 µM) of 3.39% and a viability, T/C [8] of 80.6%. The viability, T/C [9] was 98.7%, the viability, T/C [10] was 86.8% and the viability, T/C [11] was 50.8%. It also gave a viability, T/C (second compound 0.316 µM, first compound 0.316 µM) of 21.2%, a viability, T/C (second compound 0.316 µM, first compound 1 µM) of 6.79% and a viability, T/C [12] of 75%. It also gave a viability, T/C [13] of 73.6%, a viability, T/C [14] of 59.7% and a viability, T/C [15] of 49%. For the same compound, the viability, T/C (second compound 1 µM, first compound 0.316 µM) was 21% and the viability, T/C (second compound 1 µM, first compound 1 µM) was 7.2%.
For `Cc1nc(NC(=O)N2CCCC2C(N)=O)sc1-c1ccnc(C(C)(C)C(F)(F)F)c1` (stereo unspecified), the viability, T/C (compound 0.0316 µM) was 86.9% and 91.9%, the viability, T/C (compound 0.1 µM) was 93% and 82.5% and the viability, T/C (compound 0.316 µM) was 79.2% and 88.1%. For the same compound, the viability, T/C (compound 1 µM) was 64.3% and 95%, the viability, T/C (compound 3.16 µM) was 84% and 94.3% and the viability, T/C (compound 10 µM) was 25.2% and 31.6%. For the same compound, the IC50 (curve of compound) was 6.02 µM and 6.99 µM.
With `C=CC(=O)N1CCN(c2nc(=O)n(-c3c(C)ccnc3C(C)C)c3nc(-c4c(O)cccc4F)c(F)cc23)C(C)C1` (stereo unspecified) the viability, T/C (compound 0.0316 µM) was 90.5% and 115%, the viability, T/C (compound 0.1 µM) was 103% and 119% and the viability, T/C (compound 0.316 µM) was 121% and 129%. For the same compound, the viability, T/C (compound 1 µM) was 105%, the viability, T/C (compound 3.16 µM) was 93.5% and 110% and the viability, T/C (compound 10 µM) was 35.1% and 37.1%. The IC50 (curve of compound) was 7.49 µM and 8.2 µM.
With `Cn1nccc1Nc1nccc(-c2ccn(C(CO)c3ccc(Cl)c(F)c3)c(=O)c2)n1` (stereo unspecified) the viability, T/C (compound 0.0316 µM) was 84.7% and 94.8%, the viability, T/C (compound 0.1 µM) was 91.9% and 98.6% and the viability, T/C (compound 0.316 µM) was 100% and 83.9%. For the same compound, the viability, T/C (compound 1 µM) was 84.2% and 81.8%, the viability, T/C (compound 3.16 µM) was 68.4% and 64.4% and the viability, T/C (compound 10 µM) was 5.12% and 13.2%. For the same compound, the IC50 (curve of compound) was 4.4 µM and 4.23 µM.
Compound `CC(C)n1nc(-c2ccc3oc(N)nc3c2)c2c(N)ncnc21` + CC(C)NCC(C(=O)N1CCN(c2ncnc3c2C(C)CC3O)CC1)c1ccc(Cl)cc1 has an IC50 [1] of 0.00515 µM, an IC50 [2] of 0.00236 µM and an IC50 [3] of under 0.000316 µM. It also gave an IC50 (curve of first compound, second compound 3.16 µM) of under 0.000316 µM, an IC50 (curve of first compound, second compound 10 µM) of under 0.000316 µM and a viability, T/C (second compound 0.1 µM, first compound 0.000316 µM) of 76.6%. For the same compound, the viability, T/C (second compound 0.1 µM, first compound 0.001 µM) was 72.1%, the viability, T/C [4] was 58.3% and the viability, T/C [5] was 38.7%. It also gave a viability, T/C [6] of 15.8%, a viability, T/C [7] of 7.82% and a viability, T/C (second compound 0.316 µM, first compound 0.000316 µM) of 59%. It also gave a viability, T/C (second compound 0.316 µM, first compound 0.001 µM) of 54.5%, a viability, T/C [8] of 48.6% and a viability, T/C [9] of 23.4%. The viability, T/C [10] was 9.26%, the viability, T/C [11] was 5.3% and the viability, T/C (second compound 1 µM, first compound 0.000316 µM) was 47.6%. The viability, T/C (second compound 1 µM, first compound 0.001 µM) was 41%, the viability, T/C [12] was 31.1% and the viability, T/C [13] was 11.3%. For the same compound, the viability, T/C [14] was 5.17%, the viability, T/C [15] was 3.13% and the viability, T/C (second compound 3.16 µM, first compound 0.000316 µM) was 31.4%. For the same compound, the viability, T/C (second compound 3.16 µM, first compound 0.001 µM) was 25.4%, the viability, T/C (second compound 3.16 µM, first compound 0.00316 µM) was 16.8% and the viability, T/C (second compound 3.16 µM, first compound 0.01 µM) was 5.94%. For the same compound, the viability, T/C (second compound 3.16 µM, first compound 0.0316 µM) was 2.41%, the viability, T/C (second compound 3.16 µM, first compound 0.1 µM) was 1.21% and the viability, T/C (second compound 10 µM, first compound 0.000316 µM) was 15.7%. It also gave a viability, T/C (second compound 10 µM, first compound 0.001 µM) of 14.3%, a viability, T/C (second compound 10 µM, first compound 0.00316 µM) of 7.69% and a viability, T/C (second compound 10 µM, first compound 0.01 µM) of 3.03%. For the same compound, the viability, T/C (second compound 10 µM, first compound 0.0316 µM) was 0.6% and the viability, T/C (second compound 10 µM, first compound 0.1 µM) was 0.38%.
